# Laboratory results reported in US11718596B2, “Amyloid targeting agents and methods of using the same” (The Regents of the University of California, priority 2014, dated 2023).
# Tests used:
# [1] = Hydrolytic decomposition in PBS by HPLC; format: physicochemical; settings: PBS with 5% DMSO, 25° C., read-out: t1/2 for hydrolysis (converted)
# Text: In certain in vivo environments (especially at high or low pH or in the presence of esterases), ANCA-11 is expected to decompose very rapidly due to the poor stability of its ester functionality. The amide functionality in Compound 1 alleviates the problem of hydrolytic instability inherent to ANCA-11.
# [2] = system: amyloids derived from amyloid-β, PrP, and α-synuclein; format: binding
# [3] = system: amyloid deposits in murine AD neuronal tissue; assay: Tissue staining of amyloid deposits in AD mouse brain sections; settings: for fluorescence labeling of amyloid deposits in hippocampal brain sections: mouse model for Alzheimer's disease, FIG. 13; for staining of amyloid deposits in murine AD neuronal tissue: figure legends
# [4] = molecular target: aggregated Aβ(1-42) peptide (Homo sapiens, UniProt P05067); settings: in vitro; characteristic fluorescence upon binding to Alzheimer's related amyloids
# [5] = system: prion amyloid deposits in the retina
# [6] = physchem
# [7] = Solubility studies; settings: lower pH and higher buffer concentration
# [8] = molecular target: amyloid deposits in the retina (Homo sapiens, UniProt P05067); assay: Ex vivo retina analysis of J20 mice after systemic (tail vein) dosing; settings: J20 mouse, 30 minutes prior to sacrifice, co-localizes with anti-Aβ antibody
# Chain of amyloid deposits in the retina (P05067 672-713 limits assumed): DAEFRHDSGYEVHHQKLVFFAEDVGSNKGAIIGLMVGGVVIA
# Chain of aggregated Aβ(1-42) peptide (P05067 672-713): as the sequence (P05067 672-713 limits assumed) above
smiles,measurement,setting,value
"COCCOCCOCCOC(=O)/C(C#N)=C/c1ccc2cc(N3CCCCC3)ccc2c1 [ANCA-11, (E)-2-(2-(2-methoxyethoxy)ethoxy)ethyl 2-cyano-3-(6-(piperidin-1-yl)naphthalen-2-yl)acrylate, reference compound]",half-life,[1],~11 h
"COCCOCCOCCNC(=O)/C(C#N)=C/c1ccc2cc(N3CCCCC3)ccc2c1 [Compound 1, (E)-2-Cyano-N-(2-(2-(2-methoxyethoxy)ethoxy)ethyl)-3-(6-(piperidin-1-yl)naphthalen-2-yl)acrylamide]",discrimination of amyloids of different disease origin based on color of emission,[2],can distinguish between amyloids of different disease origin based on color of emission
same,fluorescence labeling of amyloid deposits in hippocampal brain sections,[3],fluorescence labeling of amyloid deposits
same,half-life,[1],~150 h
same,ability to bind selectively to amyloids,[4],bind selectively to amyloids
same,visualization of amyloid deposits in the retina of live mice,"[5]; mice inoculated with GPI-anchorless PrP, intraperitoneal injection",allowed for the visualization of amyloid deposits in the retina
same,accumulation in blood and retinal tissue after IP injection,"[5]; wt mouse, fluorescence image immediately after IP injection",immediately accumulates in the blood and in the retinal tissue
same,solubility,"[6]; aqueous buffer, solubility at lower pH and higher acidic buffer strength",> 6000 µg/mL
same,solubility,"[6]; aqueous with cosolvent or surfactant or cyclodextrin, solubility in surfactants",> 5000 µg/mL
same,solubility,"[6]; aqueous with cosolvent or surfactant or cyclodextrin, solubility in the other water miscible solvents listed",2000 to 3000 µg/mL
same,solubility,"[6]; oil or lipid, solubility in all oils tested",> 5000 µg/mL
same,solubility,"[6]; organic solvent or mixture, Solubility (mg/mL)",20000 µg/mL
same,solubility,"[6]; organic solvent or mixture, solubility in water miscible solvents: alcohols",> 5000 µg/mL
same,solubility,"[6]; pH 2, aqueous buffer, solubility in acid buffers",≤ 350 µg/mL
same,solubility,"[6]; pH 2.5, aqueous buffer, Conc (mg/mL)",1630 µg/mL
same,solubility,"[6]; pH 7.4, aqueous buffer, Conc (mg/mL)",7.4 µg/mL
same,solubility,"[6]; water, Conc (mg/mL)",3.1 µg/mL
same,solubility,"[6]; water, solubility in water",3 µg/mL
same,fold increase of solubility in acid buffer vs water,[7],100 fold
same,crossing of the blood-retina barrier,[8],can cross the blood-retina barrier
"COCCOCCOCCNS(=O)(=O)/C(C#N)=C/c1ccc2cc(N3CCCCC3)ccc2c1 [Compound 2, (E)-1-cyano-N-(2-(2-(2-methoxyethoxy)ethoxy)ethyl)-2-(6-(piperidin-1-yl)naphthalen-2-yl)ethenesulfonamide]",fluorescence labeling of amyloid deposits in hippocampal brain sections,[3],fluorescence labeling of amyloid deposits
"COCCOCCOCCOCCOCCOCCNC(=O)/C(C#N)=C/c1ccc2cc(N3CCCCC3)ccc2c1 [Compound 3, (E)-2-cyano-N-(2,5,8,11,14,17-hexaoxanonadecan-19-yl)-3-(6-(piperidin-1-yl)naphthalen-2-yl)acrylamide]",staining of amyloid deposits in murine AD neuronal tissue,[3],staining of amyloid deposits
"N#C/C(=C\c1ccc2cc(N3CCCCC3)ccc2c1)C(=O)NCC(O)CO (stereo not shown) [Compound 5, (E)-2-cyano-N-(2,3-dihydroxypropyl)-3-(6-(piperidin-1-yl)naphthalen-2-yl)acrylamide]",staining of amyloid deposits in murine AD neuronal tissue,[3],staining of amyloid deposits
"COC1OC(Cn2cc(COCCOCCOCCNC(=O)/C(C#N)=C/c3ccc4cc(N5CCCCC5)ccc4c3)nn2)C(O)C(O)C1O (stereo not shown) [Compound 19, (E)-2-cyano-3-(6-(piperidin-1-yl)naphthalen-2-yl)-N-(2-(2-(2-((1-((3,4,5-trihydroxy-6-methoxytetrahydro-2H-pyran-2-yl)methyl)-1H-1,2,3-triazol-4-yl)methoxy)ethoxy)ethoxy)ethyl)acrylamide]",staining of amyloid deposits in murine AD neuronal tissue,[3],staining of amyloid deposits
"COC1OC(Cn2cc(CNC(=O)/C(C#N)=C/c3ccc4cc(N5CCCCC5)ccc4c3)nn2)C(O)C(O)C1O (stereo not shown) [Compound 20, (E)-2-cyano-3-(6-(piperidin-1-yl)naphthalen-2-yl)-N-((1-((3,4,5-trihydroxy-6-methoxytetrahydro-2H-pyran-2-yl)methyl)-1H-1,2,3-triazol-4-yl)methyl)acrylamide]",staining of amyloid deposits in murine AD neuronal tissue,[3],staining of amyloid deposits
